Values of other authors in PubChem BioAssay AID1259409 (Chemical Carcinogenesis Research Information System (CCRIS), 2018).

System: rodent chemically induced tumor inhibition, incidence and multiplicity
Assay: CCRIS tumor inhibitor studies
Conditions: Carcinogen: 4-(METHYLNITROSAMINO)-1-(3-PYRIDYL)-1-BUTANONE, 64091-91-4, Dose [Inhibitor]: 0, Promoter: NONE USED

SMILES: S=C=NCCc1ccccc1
- tumour outcome (control, treated, inhibition, significance) (1 UMOL ONCE 2 HR PRIOR TO CARCINOGEN DOSE (STUDY DURATION: 16 WK), Route [Inhibitor]: GAVAGE, Species: MOUSE, Strain/Sex: STRAIN-A/FEMALE, Target Tissue: Type of Lesion: LUNG: ADENOMA, Dose [Carcinogen]: 10 UMOL IN 0.1 ML SALINE ONCE): 100%, 100%, 0%, not significant
- tumour outcome (control, treated, inhibition, significance) (1 UMOL/G DIET FOR 15 WK BEGINNING 1 WK POST CARCINOGEN DOSE (STUDY DURATION: 16 WK), Route [Inhibitor]: ORAL, Species: MOUSE, Strain/Sex: STRAIN-A/FEMALE, Target Tissue: Type of Lesion: LUNG: ADENOMA, Dose [Carcinogen]: 10 UMOL ONCE): 100%, 100%, 0%, not significant
- tumour outcome (control, treated, inhibition, significance) (3 UMOL/G DIET FOR 15 WK BEGINNING 1 WK POST CARCINOGEN DOSE (STUDY DURATION: 16 WK), Route [Inhibitor]: ORAL, Species: MOUSE, Strain/Sex: STRAIN-A/FEMALE, Target Tissue: Type of Lesion: LUNG: ADENOMA, Dose [Carcinogen]: 10 UMOL ONCE): 100%, 100%, 0%, not significant
- tumour outcome (control, treated, inhibition, significance) (3 UMOL/G DIET FOR 21 WK BEGINNING 1 WK PRIOR TO FIRST CARCINOGEN DOSE (STUDY DURATION: 104 WK), Route [Inhibitor]: ORAL, Species: RAT, Strain/Sex: F344/MALE, Target Tissue: Type of Lesion: LIVER: ADENOMA, Dose [Carcinogen]: 1.76 MG/KG 3/WK FOR 20 WK): 12/40 (30%), 9/40 (23%), 23%, not calculated
- tumour outcome (control, treated, inhibition, significance) (3 UMOL/G DIET FOR 21 WK BEGINNING 1 WK PRIOR TO FIRST CARCINOGEN DOSE (STUDY DURATION: 104 WK), Route [Inhibitor]: ORAL, Species: RAT, Strain/Sex: F344/MALE, Target Tissue: Type of Lesion: LIVER: CARCINOMA, Dose [Carcinogen]: 1.76 MG/KG 3/WK FOR 20 WK): 3/40 (8%), 5/40 (13%), -63%, not calculated
- tumour outcome (control, treated, inhibition, significance) (3 UMOL/G DIET FOR 21 WK BEGINNING 1 WK PRIOR TO FIRST CARCINOGEN DOSE (STUDY DURATION: 104 WK), Route [Inhibitor]: ORAL, Species: RAT, Strain/Sex: F344/MALE, Target Tissue: Type of Lesion: LUNG: ADENOMA, Dose [Carcinogen]: 1.76 MG/KG 3/WK FOR 20 WK): 8/40 (20%), 5/40 (13%), 35%, not calculated
- tumour outcome (control, treated, inhibition, significance) (3 UMOL/G DIET FOR 21 WK BEGINNING 1 WK PRIOR TO FIRST CARCINOGEN DOSE (STUDY DURATION: 104 WK), Route [Inhibitor]: ORAL, Species: RAT, Strain/Sex: F344/MALE, Target Tissue: Type of Lesion: LUNG: CARCINOMA, Dose [Carcinogen]: 1.76 MG/KG 3/WK FOR 20 WK): 24/40 (60%), 12/40 (30%), 50%, not calculated
- tumour outcome (control, treated, inhibition, significance) (3 UMOL/G DIET FOR 21 WK BEGINNING 1 WK PRIOR TO FIRST CARCINOGEN DOSE (STUDY DURATION: 104 WK), Route [Inhibitor]: ORAL, Species: RAT, Strain/Sex: F344/MALE, Target Tissue: Type of Lesion: NASAL CAVITY: BENIGN TUMOR, Dose [Carcinogen]: 1.76 MG/KG 3/WK FOR 20 WK): 8/40 (20%), 6/40 (15%), 25%, not calculated
- tumour outcome (control, treated, inhibition, significance) (3 UMOL/G DIET FOR 21 WK BEGINNING 1 WK PRIOR TO FIRST CARCINOGEN DOSE (STUDY DURATION: 104 WK), Route [Inhibitor]: ORAL, Species: RAT, Strain/Sex: F344/MALE, Target Tissue: Type of Lesion: NASAL CAVITY: SQUAMOUS CELL CARCINOMA, Dose [Carcinogen]: 1.76 MG/KG 3/WK FOR 20 WK): 3/40 (8%), 7/40 (3%), 63%, not calculated
- tumour outcome (control, treated, inhibition, significance) (3 UMOL/G OF DIET FOR 112 WK BEGINNING 1 WK PRIOR TO CARCINOGEN TREATMENT (STUDY DURATION: 112 WK), Route [Inhibitor]: ORAL, Species: RAT, Strain/Sex: F344/MALE, Target Tissue: Type of Lesion: HEMATOPOIETIC SYSTEM: LEUKEMIA OR LYMPHOMA, Dose [Carcinogen]: 2 PPM IN DRINKING WATER FOR 111 WK): 26/56 (46%), 28/59 (47%), -2%, not significant
- tumour outcome (control, treated, inhibition, significance) (3 UMOL/G OF DIET FOR 112 WK BEGINNING 1 WK PRIOR TO CARCINOGEN TREATMENT (STUDY DURATION: 112 WK), Route [Inhibitor]: ORAL, Species: RAT, Strain/Sex: F344/MALE, Target Tissue: Type of Lesion: LIVER: ADENOMA OR CARCINOMA, Dose [Carcinogen]: 2 PPM IN DRINKING WATER FOR 111 WK): 5/55 (9%), 2/56 (4%), 56%, not significant
- tumour outcome (control, treated, inhibition, significance) (3 UMOL/G OF DIET FOR 112 WK BEGINNING 1 WK PRIOR TO CARCINOGEN TREATMENT (STUDY DURATION: 112 WK), Route [Inhibitor]: ORAL, Species: RAT, Strain/Sex: F344/MALE, Target Tissue: Type of Lesion: LUNG: ADENOCARCINOMA, Dose [Carcinogen]: 2 PPM IN DRINKING WATER FOR 111 WK): 23/56 (41%), 1/59 (2%), 95%, p=0.00001
- tumour outcome (control, treated, inhibition, significance) (3 UMOL/G OF DIET FOR 112 WK BEGINNING 1 WK PRIOR TO CARCINOGEN TREATMENT (STUDY DURATION: 112 WK), Route [Inhibitor]: ORAL, Species: RAT, Strain/Sex: F344/MALE, Target Tissue: Type of Lesion: LUNG: ADENOMA, Dose [Carcinogen]: 2 PPM IN DRINKING WATER FOR 111 WK): 16/56 (29%), 2/59 (3%), 90%, p=0.0002
- tumour outcome (control, treated, inhibition, significance) (3 UMOL/G OF DIET FOR 112 WK BEGINNING 1 WK PRIOR TO CARCINOGEN TREATMENT (STUDY DURATION: 112 WK), Route [Inhibitor]: ORAL, Species: RAT, Strain/Sex: F344/MALE, Target Tissue: Type of Lesion: NASAL CAVITY: PAPILLOMA OR CARCINOMA, Dose [Carcinogen]: 2 PPM IN DRINKING WATER FOR 111 WK): 1/48 (2%), 0/53 (0%), 100%, not significant
- tumour outcome (control, treated, inhibition, significance) (3 UMOL/G OF DIET FOR 112 WK BEGINNING 1 WK PRIOR TO CARCINOGEN TREATMENT (STUDY DURATION: 112 WK), Route [Inhibitor]: ORAL, Species: RAT, Strain/Sex: F344/MALE, Target Tissue: Type of Lesion: PANCREAS (ENDOCRINE): BENIGN TUMOR, Dose [Carcinogen]: 2 PPM IN DRINKING WATER FOR 111 WK): 5/52 (10%), 7/59 (12%), -20%, not significant
- tumour outcome (control, treated, inhibition, significance) (3 UMOL/G OF DIET FOR 112 WK BEGINNING 1 WK PRIOR TO CARCINOGEN TREATMENT (STUDY DURATION: 112 WK), Route [Inhibitor]: ORAL, Species: RAT, Strain/Sex: F344/MALE, Target Tissue: Type of Lesion: PANCREAS (EXOCRINE): BENIGN TUMOR, Dose [Carcinogen]: 2 PPM IN DRINKING WATER FOR 111 WK): 1/52 (2%), 8/59 (14%), -600%, p=0.025
